{"source": "patent US20130345392A1", "about": "“EDN3-LIKE PEPTIDES AND USES THEREOF” (Pfizer Inc, priority 2011, published 2013)", "key": {"[1]": {"test_system": "INS1 cells", "assay": "Glucose-stimulated insulin release from INS1 cells", "format": "cell-based", "details": "10 μM (data not shown)"}, "[2]": {"test_system": "H4IIE rat hepatoma cells", "assay": "H4IIE glucose production in vitro", "format": "cell-based", "details": "100 nM, 24 hours, mean of 3 independent experiments±SEM, p=0.01", "description": "Cell culture reagents were purchased from Invitrogen (Gathersburg, Md.) unless otherwise noted. GLUTag cells were obtained from Dr. Daniel Drucker and cultured in High Glucose DMEM medium supplemented with 100 U/mL penicillin, 100 μg/mL streptomycin, and 10% fetal calf serum at 10% CO2 at 37° C. H4IIE rat hepatoma cells were purchase from American Type Culture Collection (Manassas, Va.) and cultured in low glucose DMEM supplemented with 100 U/mL penicillin, 100 μg/mL streptomycin, 2 mM L-glutamine and 10% heat-inactivated fetal calf serum at 5% CO2 and 37° C.\nH4IIE cells were plated at 120,000 cells per well into 96-well Poly-D-Lysine coated plates and treated using a modification of the protocol as previously reported (de Raemy-Schenk, 2006). Briefly, 4 hours after plating, growth medium was exchanged for glucose production medium (glucose-free DMEM, 2 mM sodium pyruvate, and 20 mM sodium lactate) for 18 hours and then cells were treated with EDN3 97-140 or vehicle in fresh glucose production medium. After 24 hours, media was collected and assayed for glucose using an Amplex Red Glucose/Glucose Oxidase Assay Kit purchased from Invitrogen (Gathersburg, Md.). Data was reported as a percent of vehicle to normalize across experiments. […]"}, "[3]": {"test_system": "GLUTag cells", "details": "GLUTag cells"}, "[4]": {"target": "T1, human endothelin ETB receptor (Homo sapiens, UniProt P24530)", "T1 construct": "expressed in transfected cells; host or cells: CHO cells", "T1 sequence (P24530 27-442)": "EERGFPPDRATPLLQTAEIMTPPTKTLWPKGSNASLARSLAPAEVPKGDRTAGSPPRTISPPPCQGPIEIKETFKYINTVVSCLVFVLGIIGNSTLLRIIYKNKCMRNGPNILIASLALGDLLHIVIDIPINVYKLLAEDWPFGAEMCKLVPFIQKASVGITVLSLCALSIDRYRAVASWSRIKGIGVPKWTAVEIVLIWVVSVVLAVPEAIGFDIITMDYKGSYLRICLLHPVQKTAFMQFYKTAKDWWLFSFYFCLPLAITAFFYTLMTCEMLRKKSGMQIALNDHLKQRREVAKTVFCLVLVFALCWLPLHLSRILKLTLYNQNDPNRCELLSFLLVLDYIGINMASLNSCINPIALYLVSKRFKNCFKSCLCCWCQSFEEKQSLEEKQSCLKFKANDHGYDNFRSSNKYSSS", "assay": "Radioligand binding, human endothelin ETB receptor in transfected CHO cell membranes", "details": "tested at a concentration of up to 3 μM (p>0.05)", "description": "To evaluate the affinity of EDN3 97-140 for the agonist site of the human endothelin ETB receptor in transfected CHO cells, radioligand binding was used. […] Following incubation, the samples were filtered rapidly under vacuum through glass fiber filters (GF/B, Packard) presoaked with 0.1% BSA and rinsed several times with an ice-cold buffer containing 50 mM Tris-HCl and 150 mM NaCl using a 96-sample cell harvester (Unifilter, Packard). The filters were dried then counted for radioactivity in a scintillation counter (Topcount, Packard) using a scintillation cocktail (Microscint 0, Packard)."}, "[5]": {"test_system": "DIO mice", "assay": "Glucose tolerance (IPGTT) in DIO mice", "format": "in vivo, mouse", "details": "for decrease of glucose excursion: 2 g/kg glucose challenge i.p., mean±SEM n=8", "description": "DIO mice fed on a high fat diet for 14 weeks and ob/ob mice were purchased from Jackson Labs. Ob/Ob mice and DIO mice used in all studies were used at 7 and 18 weeks old, respectively. After an overnight fast, ob/ob and DIO mice were injected with vehicle (20 mM Na acetate/140 mM NaCl) or EDN3 97-140 (0.1, 1 or 10 mg/kg i.p.) followed by a […] (i.p.) or 2 g/kg (i.p.) D-glucose challenge in ob/ob and DIO mice respectively. Plasma glucose levels were determined from mouse tail vein bleeds at 0, 15, 30, 60, and 120 minutes after compound injection and measured using an automatic glucometer (Alpha-Trak). To determine the acute insulin release, plasma insulin levels were measured by using an ELISA kit with mouse insulin as a standard (Meso Scale Discovery). Results were expressed as percentages of vehicle concentrations and statistical significance determined by 2-way ANOVA repeated measures."}, "[6]": {"assay": "Insulin tolerance test", "format": "in vivo", "details": "1 and 10 mg/kg i.p., acute administration (data not shown)"}}, "note": "Bridges are numbered along the chain shown (N, C = ends). Where no end group is shown, it is not given here."}
{"substance": "CTCFTYKDKECVYYCHLDIIWINTPEQTVPYGLSNYRESLRGKR-NH2 (disulfide 1-15, 3-11) [EDN3 97-140]", "values": [{"measurement": "modulation of glucose-stimulated insulin release from INS1 cells", "setting": "[1]", "result": "failed to modulate"}, {"measurement": "reduction of basal glucose production versus vehicle", "setting": "[2]", "result": "19.5±7.6", "unit": "%"}, {"measurement": "stimulated GLP-1 secretion", "setting": "[3]; 1 μM, vehicle pre-treatment", "result": "327±59 % of vehicle"}, {"measurement": "GLP-1 secretion from GLUTag cells, result in words", "setting": "[3]; endothelin-3 at highest concentration 10 μM", "result": "most potent peptide tested"}, {"measurement": "EC50", "setting": "[3]; read-out: EC50, GLP-1 release GLUTag assay, 15 mM glucose", "result": 369, "unit": "nM"}, {"measurement": "binding to ETB receptor", "setting": "[4]", "result": "failed to bind"}, {"measurement": "decrease of glucose excursion", "setting": "[5]; DIO mice, 0.1 mg/kg i.p.", "result": "19±7.2", "unit": "%"}, {"measurement": "decrease of glucose excursion", "setting": "[5]; DIO mice, 1 mg/kg i.p.", "result": "20.7±8.7", "unit": "%"}, {"measurement": "insulin during IPGTT", "setting": "[5]; DIO mice, i.p. (p>0.05)", "result": "no statistically significant effect on insulin"}, {"measurement": "glucose excursion curve in response to an IPGTT", "setting": "[5]; diet induced obese mice, acute peripheral administration 0.1, 1 or 10 mg/kg i.p.", "result": "decreased"}, {"measurement": "effect on insulin tolerance test", "setting": "[6]", "result": "no effect"}]}
